From BindingDB's records for doi:10.1016/j.bmcl.2004.07.023 (North Dakota State University, 2004) come the findings set out here.

For the assay, the target named is T1, Interstitial collagenase (Homo sapiens, UniProt P03956).
T1 sequence (P03956 whole entry): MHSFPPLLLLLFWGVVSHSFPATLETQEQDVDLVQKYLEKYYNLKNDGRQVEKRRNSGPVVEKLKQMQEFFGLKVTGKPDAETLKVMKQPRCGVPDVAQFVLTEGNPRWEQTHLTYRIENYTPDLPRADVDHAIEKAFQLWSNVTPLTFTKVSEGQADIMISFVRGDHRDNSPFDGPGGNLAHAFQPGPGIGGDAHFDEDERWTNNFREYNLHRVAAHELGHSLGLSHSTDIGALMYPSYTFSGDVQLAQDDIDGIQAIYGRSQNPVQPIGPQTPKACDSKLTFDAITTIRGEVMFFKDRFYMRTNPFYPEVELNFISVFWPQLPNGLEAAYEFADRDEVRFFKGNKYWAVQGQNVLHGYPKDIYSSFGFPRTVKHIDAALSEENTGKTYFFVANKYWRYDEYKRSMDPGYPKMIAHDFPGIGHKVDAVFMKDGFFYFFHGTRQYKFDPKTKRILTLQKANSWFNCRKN
In words: Inhibitory activity against matrix metalloprotease-1; No activity upto solubility limit.

A word on the Ki: it is a measure of affinity in units of concentration, obtained from inhibition or displacement.

Consider `C=C[C@@H]1OC(c2ccc(Br)cc2)=N[C@H]1Sc1ccccc1` [(4S,5S)-2-(4-Bromo-phenyl)-4-phenylsulfanyl-5-vinyl-4,5-dihydro-oxazole], for which the Ki is greater than 30 µM.
